60 compounds from US12729181B2, “Compounds, compositions, and methods for modulating calcium ion homeostasis” (The Regents of the University of California, priority 2020, dated 2026) can be followed below.

This test concerns tre^tc318 mutant embryos. As to the kind of experiment: Compound rescue screen: restoration of persistent heartbeat in tremblor embryos. The class given is in vivo, Zebrafish. Particulars: for responders at 10 µM / responders at 15 µM / responders at 20 µM: Danio rerio, 48 h; for responders at 10 µM: read-out: Rescue at 10 uM (%); for responders at 15 µM: read-out: Rescue at 15 uM (%); for responders at 20 µM: read-out: Rescue at 20 uM (%); for Rescue at 10 uM (%): 10 uM from 30 hpf; for Rescue at 10 uM (%) / Rescue at 15 uM (%) / Rescue at 20 uM (%): cardiac function by visual inspection at 2 dpf, 10 embryos per well; for Rescue at 15 uM (%): 15 uM from 30 hpf; for Rescue at 20 uM (%): 20 uM from 30 hpf. The procedure: Zebrafish of the mutant line tremblor (tre^tc318) were maintained and bred as described previously in the literature. C. f. Langenbacher A D, et al., PNAS, 2005, 102(49), 17699-17704.
Exemplary compounds were screened for their ability to partially or completely restore persistent heartbeat in tre^tc318 embryos. 10 tre^tc318 mutant embryos were placed in each well of a 24-well plate and raised in the presence of individual compounds at various concentrations (5, 10, 15 and 20 μM) from 30 hpf. Cardiac function was analyzed by visual inspection at 2 dpf. The hearts of tre^tc318 embryos manifest a chaotic movement resembling cardiac fibrillation with sporadic contractions. Compounds that elicited persistent coordinated cardiac contractions were validated by rescreening at least once on another 10 tre^tc318 mutant embryos.

Consider `CCOC(=O)C1=CCN(S(=O)(=O)c2ccccc2C)C1c1ccc(Cl)cc1` (stereo not drawn) [FS017], for which the responders at 10 µM was 25%, the responders at 15 µM was 60% and the responders at 20 µM is 20%. For the compound `CCOC(=O)C1=CCN(S(=O)(=O)c2ccccc2C)C1c1ccc(C)cc1` (stereo not drawn) [FS018], the responders at 10 µM amounted to 0%. As for `CCOC(=O)C1=CCN(S(=O)(=O)c2ccccc2C)C1c1ccc(Cl)c(Cl)c1` (stereo not drawn) [FS019], the responders at 10 µM is 30%, the responders at 15 µM is 40% and the responders at 20 µM came out at 30%. For the compound `CCOC(=O)C1=CCN(S(=O)(=O)c2ccccc2C)C1c1cccc(Cl)c1` (stereo not drawn) [FS020], the responders at 10 µM is 0%.

In the case of `CCOC(=O)C1=CCN(S(=O)(=O)c2ccccc2C)C1c1cccc(Br)c1` (stereo not drawn) [FS021], the responders at 10 µM stood at 10%. On to `CCOC(=O)C1=CCN(S(=O)(=O)c2ccccc2C)C1c1cccc(F)c1` (stereo not drawn) [FS022], for which the responders at 10 µM was 0%. As for `CCOC(=O)C1=CCN(S(=O)(=O)c2ccccc2Cl)C1c1cccc(Cl)c1` (stereo not drawn) [FS024], the responders at 10 µM was 0%.

Take `CCOC(=O)C1=CCN(S(=O)(=O)c2ccccc2C)C1c1cccc(C)c1` (stereo not drawn) [FS025]: the responders at 10 µM stood at 0%. Turning to `CCOC(=O)C1=CCN(S(=O)(=O)c2ccccc2Cl)C1c1cccc(Br)c1` (stereo not drawn) [FS026], the responders at 10 µM was determined as 0%. The same measure, in the same setting: to `CCOC(=O)C1=CCN(S(=O)(=O)c2ccccc2Cl)C1c1cccc(F)c1` (stereo not drawn) [FS027] belongs 0%; to `CCOC(=O)C1=CCN(S(=O)(=O)c2ccccc2Cl)C1c1cccc(C)c1` (stereo not drawn) [FS028], 0%.

For the compound `CCOC(=O)C1=CCN(S(=O)(=O)c2ccccc2Br)C1c1ccc(Cl)c(Cl)c1` (stereo not drawn) [FS029], the responders at 10 µM worked out at 70%, the responders at 15 µM is 10% and the responders at 20 µM came to 10%. For the compound `CCOC(=O)C1=CCN(S(=O)(=O)c2ccccc2Br)C1c1cccc(Cl)c1` (stereo not drawn) [FS030], the responders at 10 µM was found to be 0%. In the case of `CCOC(=O)C1=CCN(S(=O)(=O)c2ccccc2Br)C1c1cccc(Br)c1` (stereo not drawn) [FS031], the responders at 10 µM was determined as 0%. Same read-out and setting: next, `CCOC(=O)C1=CCN(S(=O)(=O)c2ccccc2Br)C1c1cccc(F)c1` (stereo not drawn) [FS032]: 0%. Turning to `CCOC(=O)C1=CCN(S(=O)(=O)c2ccccc2Br)C1c1cccc(C)c1` (stereo not drawn) [FS033], the responders at 10 µM came out at 0%.

Take `CCOC(=O)C1=CCN(S(=O)(=O)c2ccccc2F)C1c1ccc(Cl)c(Cl)c1` (stereo not drawn) [FS034]: the responders at 10 µM came to 65%, the responders at 15 µM was 30% and the responders at 20 µM came to 20%. For `CCOC(=O)C1=CCN(S(=O)(=O)c2ccccc2F)C1c1cccc(Cl)c1` (stereo not drawn) [FS035], the responders at 10 µM stood at 0%. The same measure, in the same setting: next, `CCOC(=O)C1=CCN(S(=O)(=O)c2ccccc2F)C1c1cccc(Br)c1` (stereo not drawn) [FS036]: 0%.

Take `CCOC(=O)C1=CCN(S(=O)(=O)c2ccccc2F)C1c1cccc(F)c1` (stereo not drawn) [FS037]: the responders at 10 µM is 0%. Same read-out and setting: next, `CCOC(=O)C1=CCN(S(=O)(=O)c2ccccc2F)C1c1cccc(C)c1` (stereo not drawn) [FS038]: 25%; `CCOC(=O)C1=CCN(S(=O)(=O)c2ccccc2C)C1c1ccc(Br)cc1` (stereo not drawn) [FS039]: 33%. On to `CCOC(=O)C1=CCN(S(=O)(=O)c2ccccc2Cl)C1c1ccc(Cl)cc1` (stereo not drawn) [FS041], for which the responders at 10 µM came to 44%, the responders at 15 µM worked out at 30% and the responders at 20 µM was found to be 20%. `CCOC(=O)C1=CCN(S(=O)(=O)c2ccccc2Cl)C1c1ccc(Br)cc1` (stereo not drawn) [FS042]: the responders at 10 µM is 0%. In the case of `CCOC(=O)C1=CCN(S(=O)(=O)c2ccccc2Cl)C1c1ccc(F)cc1` (stereo not drawn) [FS043], the responders at 10 µM is 33%. On the same count and under the same terms, next, `CCOC(=O)C1=CCN(S(=O)(=O)c2ccccc2Cl)C1c1ccc(C)cc1` (stereo not drawn) [FS044]: 0%. On to `CCOC(=O)C1=CCN(S(=O)(=O)c2ccccc2Br)C1c1ccc(Br)cc1` (stereo not drawn) [FS046], for which the responders at 10 µM amounted to 60%, the responders at 15 µM worked out at 10% and the responders at 20 µM was found to be 10%. As to `CCOC(=O)C1=CCN(S(=O)(=O)c2ccccc2Br)C1c1ccc(F)cc1` (stereo not drawn) [FS047], the responders at 10 µM stood at 20%. Consider `CCOC(=O)C1=CCN(S(=O)(=O)c2ccccc2Br)C1c1ccc(C)cc1` (stereo not drawn) [FS048], for which the responders at 10 µM is 0%.

Consider `CCOC(=O)C1=CCN(S(=O)(=O)c2ccccc2C)C1c1ccccc1` (stereo not drawn) [FS053], for which the responders at 10 µM is 0%.

Turning to `CCOC(=O)C1=CCN(S(=O)(=O)c2ccccc2Cl)C1c1ccccc1` (stereo not drawn) [FS054], the responders at 10 µM turned out to be 0%. On to `CCOC(=O)C1=CCN(S(=O)(=O)c2ccccc2Br)C1c1ccccc1` (stereo not drawn) [FS055], for which the responders at 10 µM was determined as 0%. Take `CCOC(=O)C1=CCN(S(=O)(=O)c2ccccc2F)C1c1ccccc1` (stereo not drawn) [FS056]: the “Rescue at 10 uM (%)” value amounted to 20%, the “Rescue at 15 uM (%)” value is given as 0% and the “Rescue at 20 uM (%)” value was determined as 0%. On to `CCOC(=O)C1=CCN(S(=O)(=O)c2ccc(C)cc2)C1c1ccc(C)cc1` (stereo not drawn) [FS057], for which the “Rescue at 10 uM (%)” value was determined as 60%, the “Rescue at 15 uM (%)” value is 70% and the “Rescue at 20 uM (%)” value is listed as 60%. Take `CCOC(=O)C1=CCN(S(=O)(=O)c2ccc(C)cc2)C1c1ccc(CC)cc1` (stereo not drawn) [FS058]: the responders at 10 µM worked out at 58%, the responders at 15 µM came to 80% and the responders at 20 µM turned out to be 45%. `CCOC(=O)C1=CCN(S(=O)(=O)c2ccc(C)cc2)C1c1ccc2c(c1)OCO2` (stereo not drawn) [FS059]: the responders at 10 µM worked out at 20%. For `CCOC(=O)C1=CCN(S(=O)(=O)c2ccc(C)cc2)C1c1ccc(C#N)cc1` (stereo not drawn) [FS060], the responders at 10 µM came out at 80%, the responders at 15 µM stood at 60% and the responders at 20 µM was found to be 0%.

On to `CCOC(=O)C1=CCN(S(=O)(=O)c2ccc(C)cc2)C1c1ccc(C(=O)OCC)cc1` (stereo not drawn) [FS061], for which the responders at 10 µM was 40%, the responders at 15 µM stood at 56% and the responders at 20 µM stood at 40%. Take `CCOC(=O)C1=CCN(S(=O)(=O)c2ccc(C)cc2)C1c1ccccc1F` (stereo not drawn) [FS062]: the “Rescue at 10 uM (%)” value turned out to be 50%, the “Rescue at 15 uM (%)” value was determined as 90% and the “Rescue at 20 uM (%)” value is given as 60%. On to `CCOC(=O)C1=CCN(S(=O)(=O)c2ccc(C)cc2)C1c1ccc(Cl)cc1` (stereo not drawn) [FS063], for which the “Rescue at 10 uM (%)” value came to 40%.

`CCOC(=O)C1=CCN(S(=O)(=O)c2ccc(C)cc2)C1c1cccc(Cl)c1` (stereo not drawn) [FS064]: the “Rescue at 10 uM (%)” value stood at 20%. As to `CCOC(=O)C1=CCN(S(=O)(=O)c2ccc(C)cc2)C1c1ccc(Cl)c(Cl)c1` (stereo not drawn) [FS065], the responders at 10 µM turned out to be 11%. With `CCOC(=O)C1=CCN(S(=O)(=O)c2ccc(C)cc2)C1c1ccc(Br)cc1` (stereo not drawn) [FS066], the “Rescue at 10 uM (%)” value was found to be 11%. In the case of `CCOC(=O)C1=CCN(S(=O)(=O)c2ccc(C)cc2)C1c1cccc(Br)c1` (stereo not drawn) [FS067], the “Rescue at 10 uM (%)” value was found to be 20%.

For `CCOC(=O)C1=CCN(S(=O)(=O)c2ccc(C)cc2)C1c1cccc2ccccc12` (stereo not drawn) [FS068], the “Rescue at 10 uM (%)” value is given as 0%, the “Rescue at 15 uM (%)” value was 0% and the “Rescue at 20 uM (%)” value is 0%. With `CCOC(=O)C1=CCN(S(=O)(=O)c2ccc(C)cc2)C1c1ccc(C(C)C)cc1` (stereo not drawn) [FS070], the “Rescue at 10 uM (%)” value stood at 0%. On to `CCOC(=O)C1=CCN(S(=O)(=O)c2ccccc2)C1c1ccc(Cl)cc1` (stereo not drawn) [FS072], for which the “Rescue at 10 uM (%)” value turned out to be 60%, the “Rescue at 15 uM (%)” value was 70% and the “Rescue at 20 uM (%)” value stood at 40%. For `CCOC(=O)C1=CCN(S(=O)(=O)c2ccccc2C(=O)OC)C1c1ccc(Cl)cc1` (stereo not drawn) [FS073], the “Rescue at 10 uM (%)” value came out at 40%. In the case of `CCOC(=O)C1=CCN(S(=O)(=O)c2ccccc2[N+](=O)[O-])C1c1ccc(C)cc1` (stereo not drawn) [FS075], the “Rescue at 10 uM (%)” value was 0%. Consider `CCOC(=O)C1=CCN(S(=O)(=O)c2ccccc2C(=O)OC)C1c1ccc(C)cc1` (stereo not drawn) [FS076], for which the responders at 10 µM was determined as 40%, the responders at 15 µM was 60% and the responders at 20 µM came out at 10%. As to `CCOC(=O)C1=CCN(S(=O)(=O)c2ccccc2)C1c1ccc(C)cc1` (stereo not drawn) [FS077], the “Rescue at 10 uM (%)” value is 30%. `CCOC(=O)C1=CCN(S(=O)(=O)c2ccc(Cl)cc2)C1c1ccc(Cl)cc1` (stereo not drawn) [FS085]: the “Rescue at 10 uM (%)” value was determined as 89%, the “Rescue at 15 uM (%)” value is reported as 80% and the “Rescue at 20 uM (%)” value stood at 80%. For `CCOC(=O)C1=CCN(S(=O)(=O)c2ccc(Cl)cc2)C1c1ccc(C)cc1` (stereo not drawn) [FS086], the “Rescue at 10 uM (%)” value amounted to 11%. As to `CCOC(=O)C1=CCN(S(=O)(=O)c2ccc(Cl)cc2)C1c1ccc(Cl)c(Cl)c1` (stereo not drawn) [FS087], the responders at 10 µM is 22%, the responders at 15 µM amounted to 0% and the responders at 20 µM was determined as 0%. `CCOC(=O)C1=CCN(S(=O)(=O)c2ccc(Cl)cc2)C1c1cccc(Cl)c1` (stereo not drawn) [FS088]: the responders at 10 µM was 0%. On to `CCOC(=O)C1=CCN(S(=O)(=O)c2ccc(Cl)cc2)C1c1cccc(Br)c1` (stereo not drawn) [FS089], for which the responders at 10 µM is 0%.

Consider `CCOC(=O)C1=CCN(S(=O)(=O)c2ccc(Cl)cc2)C1c1cccc(F)c1` (stereo not drawn) [FS090], for which the responders at 10 µM is 40%. With `CCOC(=O)C1=CCN(S(=O)(=O)c2ccc(Cl)cc2)C1c1cccc(C)c1` (stereo not drawn) [FS091], the responders at 10 µM was 0%. Turning to `CCOC(=O)C1=CCN(S(=O)(=O)c2ccc(Br)cc2)C1c1ccc(Cl)c(Cl)c1` (stereo not drawn) [FS092], the responders at 10 µM came to 0%, the responders at 15 µM is 11% and the responders at 20 µM amounted to 11%. Regarding `CCOC(=O)C1=CCN(S(=O)(=O)c2ccc(Br)cc2)C1c1cccc(Cl)c1` (stereo not drawn) [FS093], the responders at 10 µM came out at 0%.
